Series [1] has as its target Lysosomal alpha-glucosidase (Homo sapiens, UniProt P10253). In words: Inhibition of human lysosomal alpha-glucosidase preincubated for 10 mins followed by p-nitrophenyl-alpha-D glucopyranoside addition and measured after 30 mins by absorbance based analysis.
Series [2] concerns L929. Nature of the series: Cytotoxicity against mouse L929 cells by MTT assay. The series is classed as toxicity, cell-based.
In series [3] the test system is HepG2. Nature of the series: Upregulation of PPAR-gamma expression in human HepG2 cells by RayBio PPAR-gamma TF activity assay. The series is classed as functional, cell-based. The note with it: dose 6.25-100 µM.

Calls of active or inactive are those of the source. The calls are words filed in the database; no cut-off is given here.

With `Cc1ccc(-c2csc(N/N=C/c3ccc(/C=C4\SC(=S)N(CC(=O)O)C4=O)cc3)n2)cc1`, in series [1] (time 40.0 min), the inhibition result is “inactive”. Further, in series [2], the Activity result is recorded as “Non-toxic”.

Regarding `COc1ccc(-c2csc(N/N=C/c3ccc(/C=C4\SC(=S)NC4=O)cc3)n2)cc1`, the IC50 (commonly the concentration needed to halve the response being measured) in series [1] is 46 µM. Moreover, in series [2], the Activity entry is listed as “Non-toxic”.

In series [1], `O=C1NC(=S)S/C1=C\c1ccc(/C=N/Nc2nc(-c3ccc(F)cc3)cs2)cc1` showed an IC50 of 148 µM. Also, the Activity entry in series [2] is reported as “Non-toxic”.

`O=C(O)CN1C(=O)/C(=C/c2ccc(/C=N/Nc3nc(-c4ccc(Cl)cc4)cs3)cc2)SC1=S`: half-maximal inhibition in series [1] (IC50) required 62.1 µM. The Activity result in series [2] is listed as “Non-toxic”.

Regarding `O=C1NC(=S)S/C1=C\c1ccc(/C=N/Nc2nc(-c3ccccc3)cs2)cc1`, the half-maximal inhibitory concentration (IC50) in series [1] stood at 55.2 µM. Also, the Activity result in series [2] is on record as “Non-toxic”.

`O=C(O)CN1C(=O)/C(=C/c2ccc(/C=N/Nc3nc(-c4ccccc4)cs3)cc2)SC1=S` yielded an IC50 in series [1] of 29.1 µM. For the same molecule, the Activity result in series [2] is given as “Non-toxic”.

The molecule `O=C(O)CN1C(=O)/C(=C/c2ccc(/C=N/Nc3nc(-c4ccc(F)cc4)cs3)cc2)SC1=S` showed an IC50 in series [1] of 52 µM. Further, the Activity result in series [2] is “Non-toxic”.

On to `COc1ccc(-c2csc(N/N=C/c3ccc(/C=C4\SC(=S)N(CC(=O)O)C4=O)cc3)n2)cc1`, for which the half-maximal inhibitory concentration (IC50) in series [1] is 63.2 µM. Besides, the Activity result in series [2] is on record as “Non-toxic”.

Regarding `O=C1NC(=S)S/C1=C\c1ccc(/C=N/Nc2nc(-c3ccc(Br)cc3)cs2)cc1`, the IC50 in series [1] came to 32.2 µM. The Activity entry in series [3] is “Dose-dependent-effect”; in series [2], “Non-toxic”.

For the molecule `O=C1NC(=S)S/C1=C\c1ccc(/C=N/Nc2nc(-c3ccc(Cl)cc3)cs2)cc1`, the IC50 in series [1] turned out to be 33.2 µM. Besides, the Activity result in series [3] is “Dose-dependent-effect”; in series [2], “Non-toxic”.

With `Cc1ccc(-c2csc(N/N=C/c3ccc(/C=C4\SC(=S)NC4=O)cc3)n2)cc1`, inhibition in series [1] was half-maximal at 106 µM (IC50). Besides, the Activity result in series [2] is “Non-toxic”.

In turn, `O=C(O)CN1C(=O)/C(=C/c2ccc(/C=N/Nc3nc(-c4ccc(Br)cc4)cs3)cc2)SC1=S` yielded an IC50 in series [1] of 24.2 µM. For the same molecule, the Activity entry in series [2] is recorded as “Non-toxic”.
